The values that follow come from patent publication US6790854B2, “Diphenylalkylamine derivatives useful as opioid receptor agonists” (Meiji Seika Kaisha, Ltd., priority 2000, dated 2004).

As usually defined, the Ki is a measure of affinity in units of concentration, obtained from inhibition or displacement.

The experiment addresses T1, opioid δ receptor (Rattus norvegicus, UniProt P33533).
T1 construct: A membrane fraction of opioid δ receptor was prepared from the rat forebrain; from tissue; host or cells: rat forebrain membrane fraction
The experiment in a line: Binding affinity for opioid δ receptor ([3H]-Naltrindole displacement, rat forebrain membrane fraction). Particulars: [3H]-Naltrindole 1 nM, 25° C., 90 minutes, Ki calculated from IC50 by the Cheng-Prusoff equation.

SMILES strings stand for the structures.

T1 sequence (P33533 whole entry): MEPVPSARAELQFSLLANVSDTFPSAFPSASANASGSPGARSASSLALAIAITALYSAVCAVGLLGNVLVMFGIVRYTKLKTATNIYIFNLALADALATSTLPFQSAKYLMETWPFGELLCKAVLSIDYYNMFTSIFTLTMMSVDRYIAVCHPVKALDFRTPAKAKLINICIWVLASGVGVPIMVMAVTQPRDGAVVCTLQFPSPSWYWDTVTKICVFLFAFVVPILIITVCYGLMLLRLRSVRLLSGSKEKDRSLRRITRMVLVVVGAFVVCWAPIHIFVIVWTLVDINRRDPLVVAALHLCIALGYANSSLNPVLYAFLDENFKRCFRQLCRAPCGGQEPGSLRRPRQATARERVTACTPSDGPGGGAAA

Turning to `CCN(CC)C(=O)c1ccc(C(CCN2CCC3(CC2)CNC(=O)c2cccc(C)c23)c2ccccc2OC)cc1` (stereo not shown) [Example 9, 1′-[3-(4-Diethylcarbamoylphenyl)-3-(2-methoxyphenyl)Propyl]-2,3-dihydro-5-methylspiro [isoquinoline-4(1H),4′-piperidin]-1-one], the Ki was 1210 nM.
